Like-named read-outs stand apart in the source and are kept apart here.

The data set concerns PP6C. The data set can be described thus: Western blot of PP6C and gamma-globin in primary human cells after RNP electroporation of SpCas9 with guide RNA. The format is cell-based. The source says: FIGS. 2A-2D provide data regarding validation of PP6C as a regulator of HbF in human primary cells utilizing RNP-based electroporation of SpCas9 with guide RNA targeting PP6C. FIG. 2A depicts protein levels by Western blot of PP6C and gamma-globin with 6 independent guide RNA targeting PP6C or a non-targeting guide RNA. […] These specific guide RNAs were utilized for further primary human cell testing. FIG. 2B provides a graph of gamma globin mRNA levels in four independent biological replicates of human primary cells treated with PP6C sgRNA #1 or #3; a guide RNA targeting the BCL11A +58 enhancer (positive control), or a non-targeting guide RNA (negative control). FIG. 2C provides representative flow cytometric plots of HbF staining (top) and compiled F-cell flow cytometric staining in four independent biological replicates (bottom) in cells treated with PP6C sgRNA, BCL11A +58 sgRNA, or non-targeting sgRNA. […] FIG. 2D are representative cation-exchange high performance liquid chromatography (HPLC) tracings (top) and complied HPLC HbF+ quantitation in two independent biological replicates (bottom) in cells treated with PP6C sgRNA, BCL11A +58 sgRNA, or non-targeting sgRNA. HbF elutes as a distinct peak (grey box), followed by adult hemoglobin (HbA). Percentages are quantified as HbF percentage of total globins (HbF+HbA).
Cells were transduced with one of the six guide RNAs targeting PP6C, a guide RNA targeting BCL11A exon 2 (positive control; BCL11A is a repressor of HbF expression), or non-targeting guide RNA or untreated control (negative controls).
For orientation: A western blot detects proteins with antibodies after separation by electrophoresis.

“PP6C sgRNA1: CRISPR sgRNA targeting PP6C, sequence GCACATCAACTAGTGCACGA (SEQ ID NO: 5) (listed as DNA, chemistry not given here)”: the PP6C protein level result was “significantly depleted” and the gamma-globin protein levels entry is “significantly increased”. Further, the gamma-globin protein levels entry (listed as PP6C guide RNA #1) was “significant induction”.

As for “PP6C sgRNA3: CRISPR sgRNA targeting PP6C, sequence GGAACTGCCCGGAATAACTT (SEQ ID NO: 7) (listed as DNA, chemistry not given here)”, the PP6C protein level entry was “significantly depleted” and the gamma-globin protein levels entry was “significantly increased”. In addition, the gamma-globin protein levels entry (listed as PP6C guide RNA #3) was “significant induction”.

“PP6C sgRNA4: CRISPR sgRNA targeting PP6C, sequence TCCTCGGGGACTGATAGCCC (SEQ ID NO: 8) (listed as DNA, chemistry not given here)”: the PP6C protein level entry is given as “significantly depleted” and the gamma-globin protein levels result is listed as “significant induction”.

(Values after patent US20230045199A1, “COMPOSITIONS AND METHODS FOR HEMOGLOBIN PRODUCTION” (THE CHILDREN'S HOSPITAL OF PHILADELPHIA, priority 2019, published 2023).)
